Converted amounts (≈) assume the structure as drawn. Where two headings read alike, the source gives them in different places.
What was measured:
[1] = Pharmacokinetic evaluation of compound of Example 1 in mice (plasma concentration, LC-MS/MS); type: in vivo; settings: female ICR mice, tail vein, 3 mg/kg
Procedure: 1. Pharmacokinetic Evaluation of Compound of Example 1 in Mice […] The blood samples were put in sampling tubes and stored under ice cooling, after which they were centrifuged for 5 minutes at 10,500×g and at 4° C. The plasma thus obtained was accurately divided into 10 μL amounts and stored at −20° C. until they were analyzed. The plasma concentrations of the compound of Example 1 and the active form thereof were measured using a liquid chromatography mass spectrometer (LC-MS/MS: Waters, Quattro Ultima Pt), and quantified by internal standard method. […] MultiScreen™) and analyzed by LC-MS/MS (Waters, Quattro Ultima Pt). In the chromatogram thus obtained, the surface area of the peaks for the compound of Example 1, the active form thereof (the parent compound of the compound of Example 1), and the internal standard substance were analyzed with analytic software (Waters: MassLynx 4.0), and the concentration of the compound included in the plasma was calculated by internal standard method. The active form concentration after administration of the compound of Example 1 was corrected with the molecular weight ratio, that is, the value of (the molecular weight of the compound of Example 1)/(the molecular weight of the active form).

[2] = Comparative test of solubility in water (Britton-Robinson buffer); type: physicochemical; settings: for solubility: aqueous buffer, Britton-Robinson buffer (ionic strength: 0.3), 25° C.; for Solubility in water compared with the parent compound: conclusion from Table 1
[3] = buffer
[4] = Pharmacokinetic evaluation of compounds of Examples 2 and 3 in mice (plasma concentration, LC-MS); type: in vivo; settings: female ICR mice, tail vein, 3 mg/kg as active form equivalent; for Plasma concentration of the administered compound: 20 min to 8 h; for Plasma concentration of the administered compound / Concentration of the active form in plasma after administration of the compound: FIG. 2
Procedure: 2. Pharmacokinetic Evaluation of Compound of Examples 2 and 3 in Mice
The compounds of Examples 2 and 3 were dissolved in respective concentrations of 1 and 1.5 mg/mL with 5% glucose (Otsuka Pharmaceutical) containing a 10 mM hydrochloric acid solution (Wako Pure Chemicals), and the active form was dissolved in a concentration of 0.5 mg/mL in 5% glucose (Otsuka Pharmaceutical) containing a 10 mM hydrochloric acid solution (Wako Pure Chemicals).
Using seven-week-old female ICR mice (Charles River Japan), with two mice per group, the compound of the present invention and the active form thereof were administered into the tail vein in a dose of 3 mg/kg, calculated as an active form equivalent. The tail vein was punctured 20 minutes, 45 minutes, and 1.5, 3, 5, and 8 hours after administration, and blood was collected with a heparin-treated pipette. The blood samples were put in sampling tubes and stored under ice cooling, after which they were centrifuged for 5 minutes at 10,500×g and at 4° C. The plasma thus obtained was accurately divided into 5 μL amounts and stored at −20° C. until they were analyzed.
The plasma concentrations of the compounds of Examples 2 and 3 and the active form thereof were measured using a liquid chromatography mass spectrometer (LC-MS: Waters, ZQ mass detector), and quantified by internal standard method. Imipramine hydrochloride (Sigma) was dissolved in a mixed solution of acetonitrile and methanol (9:1) so that the concentration would be 1 μmol/L, to prepare an internal standard substance solution (IS solution). The plasma was melted, after which 50 μL of IS solution was added thereto and mixed while still cooled with ice, and this was centrifuged (deproteinated) for 10 minutes at 1607×g and at 4° C., after which the supernatant was analyzed by LC-MS (Waters, ZQ mass detector). In the chromatogram thus obtained, the surface area of the peaks for the compounds of Examples 2 and 3, the active form thereof, and the internal standard substance were analyzed with analytic software (Waters: MassLynx 4.0), and the concentration of the compound included in the plasma was calculated by internal standard method.

[5] = Stability in solution in Britton-Robinson buffer; settings: Britton-Robinson buffer (ionic strength: 0.3), 25° C.
[6] = pH 3, read-out: Solubility (mg/mL) pH 3
[7] = pH 7, read-out: Solubility (mg/mL) pH 7

For `N[C@@H](CCC(=O)Nc1ncccc1-c1cc(Cc2ccc(COc3ccccn3)cc2)no1)C(=O)O` [Example 1, (S)-2-Amino-4-(3-(3-(4-(pyridin-2-yloxymethyl)-benzyl)-isoxazol-5-yl)-pyridin-2-ylcarbamoyl)-butyric acid], the “Conversion into the active form in the bodies of the mice” value (“Conversion into the active form” for short) [1] was “rapidly converted into the active form”, the “Plasma concentration of the active form after administration of the compound” value ([1]; FIG. 1) was “increased quickly from immediately after administration” and the “Plasma concentration of the administered compound” value ([1]; FIG. 1) was “decreased quickly after administration”. The solubility [2, 6] was 1.1 mg/mL (≈ 2260 µM), the solubility [2, 7] was 0.3 mg/mL (≈ 615 µM) and the “Solubility in water compared with the parent compound” value [2] was “higher solubility in water than does the parent compound”. The “Stability in solution (remainder (%) after 24 h in dark place) pH 3” value [3] was 96% and the “Stability in solution (remainder (%) after 24 h in dark place) pH 7” value [3] was 92%.
For `COC(=O)[C@@H](N)CCC(=O)Nc1ncccc1-c1cc(Cc2ccc(COc3ccccn3)cc2)no1` [Example 2, (S)-2-Amino-4-(3-{-[4-(pyridin-2-yloxymethyl)-benzyl]soxazol-5-yl}-pyridin-2-ylcarbamoyl)-butyric acid methyl ester], the solubility [2, 6] was 45 mg/mL (≈ 89700 µM), the solubility [2, 7] was 0.2 mg/mL (≈ 399 µM) and the “Solubility in water compared with the parent compound” value [2] was “higher solubility in water than does the parent compound”. For the same compound, the “Conversion into the active form” value [4] was “rapidly converted into the active form”, the “Plasma concentration of the administered compound” value [4] was “not detected” and the “Concentration of the active form in plasma after administration of the compound” value [4] was “rose sharply after administration”. For the same compound, the “Stability in solution (remainder (%) after 24 h in dark place) pH 3” value [3] was 88% and the “Stability in solution (remainder (%) after 24 h in dark place) pH 7” value [3] was 44%.
With `CN(C)CCOC(=O)[C@@H](N)CCC(=O)Nc1ncccc1-c1cc(Cc2ccc(COc3ccccn3)cc2)no1` [Example 3, (S)-2-Amino-4-(3-{3-[4-(pyridin-2-yloxymethyl)-benzyl]-isoxazol-5-yl}-pyridin-2-ylcarbamoyl)-butyric acid 2-dimethylamino-ethyl ester] the solubility [2, 6] was 12 mg/mL (≈ 21500 µM), the solubility [2, 7] was 1.1 mg/mL (≈ 1970 µM) and the “Solubility in water compared with the parent compound” value [2] was “higher solubility in water than does the parent compound”. For the same compound, the “Conversion into the active form” value [4] was “rapidly converted into the active form”, the “Plasma concentration of the administered compound” value [4] was “not detected” and the “Concentration of the active form in plasma after administration of the compound” value [4] was “rose sharply after administration”. The “Stability in solution (remainder (%) after 24 h in dark place) pH 3” value [3] was 116% and the “Stability in solution (remainder (%) after 24 h in dark place) pH 7” value [3] was 82%.
With `Nc1ncccc1-c1cc(Cc2ccc(COc3ccccn3)cc2)no1` [Parent compound, 3-(3-(4-(Pyridin-2-yloxymethyl)-benzyl)-isoxazol-5-yl)-pyridin-2-ylamine] the solubility [2, 6] was 0.29 mg/mL (≈ 809 µM), the solubility [2, 7] was 0.001 mg/mL (≈ 2.79 µM) and the “Stability in solution (remainder (%) after 24 h in dark place) pH 2” value ([5]; pH 2 (printed in pH 3 column), 24 h in dark place) was 90 (pH 2) %. The “Stability in solution (remainder (%) after 24 h in dark place) pH 4” value ([5]; pH 4 (printed in pH 3 column), 24 h in dark place) was 99 (pH 4) % and the “Stability in solution (remainder (%) after 24 h in dark place) pH 7” value ([5]; pH 7, 24 h in dark place) was 95%.

From patent US8188119B2, “Pyridine derivatives substituted with heterocyclic ring and γ-glutamylamino group, and antifungal agents containing same” (Eisai R&D Management Co., Ltd, priority 2008, dated 2012)
